In ChEMBL document CHEMBL3301546, “MMV Malaria Box yeast growth screening”:

Experiments:
Type in all cases: functional
Saccharomyces cerevisiae [1] = test: (§1) MMV: Growth assays were conducted using the prototrophic S. cerevisiae strain JHY222. Each MMV compound (0.1 mM) was tested in rich media containing dextrose as a carbon source (Yeast Extract, Peptone, Dextrose; YPD). The growth rate in the presence of each MMV compound was calculated as follows: (i) the first 10 OD readings were averaged and subtracted from all OD readings of the corresponding curve to set the baseline of the growth curve to zero, and (ii) the area under the curve (AUC) was then calculated as the sum of all OD readings. […] A relative growth value was calculated as follows: AUC(DRUG) - AUC(DMSO)/AUC(DMSO); where AUC(DMSO) represents growth measured in a DMSO control well that was on the same microtiter plate of the drug-treated culture.
Saccharomyces cerevisiae [2] = test: as §1, with “minimal” for “rich”, “Nitrogen Base,” for “Extract, Peptone,”, “YNBD).” for “YPD).”
Saccharomyces cerevisiae [3] = test: as §1, with “minimal” for “rich”, “ethanol and glycerol” for “dextrose”, “as” for “as a”, “sources” for “source”, “Nitrogen Base, Ethanol, Glycerol; YNBEG).” for “Extract, Peptone, Dextrose; YPD).”

SMILES	Relative Growth (Saccharomyces cerevisiae [1])	Relative Growth (Saccharomyces cerevisiae [2])	Relative Growth (Saccharomyces cerevisiae [3])
CN(C)c1ccc(C(O)(c2ccc(N(C)C)cc2)c2ccc(N(C)C)cc2)cc1 [METHYLROSANILINE]	-0.0138	-0.0186	-0.4054
Cc1cc(Nc2ccc3ccccc3c2)n2ncnc2n1	0.0302	0.0095	-0.024
Cc1c(C)n(CC(O)CNC2CCCCC2C)c2ccccc12 (stereo not drawn)	-0.0794	-0.0308	-0.2246
O=C(Nc1cccc(C(F)(F)F)c1)c1cc(Cl)ccc1O	-0.651	-1.0097	-1.011
CN(C)CCCNCc1ccc(-c2ccc(F)c(Cl)c2)o1.Cl	-0.0396	0.0576	0.0645
CCC(C)NCC(O)(c1ccc(Cl)cc1)c1ccc(Cl)cc1 (stereo not drawn)	0.0173	0.042	-0.0906
COc1ccc(C2=C(c3ccc(OC)cc3)C3(c4ccccc4)C(=O)C2(c2ccccc2)C2C(=O)N(c4ccc(C)cc4)C(=O)C23)cc1 (stereo not drawn)	0.0057	-0.018	-0.0687
Cc1cc(Nc2cccc(F)c2)nc(NCc2ccccc2)n1	-0.0448	0.0258	-0.2557
CCCC(c1nnnn1C1CCCCC1)N1CCN(C(=O)c2ccco2)CC1.Cl (stereo not drawn)	-0.0604	0.0714	0.0167
O=C(Nc1ccc(C23CC4CC(CC(c5ccccc5)(C4)C2)C3)cc1)c1cccs1	-1.0024	-0.46	-0.1427
CCOc1ccc(C2N(C)c3ccccc3N2C)cc1	-0.6451	-1.0114	-1.002
O=C(CCc1ccco1)NC1CCN(CC2(c3ccc(Cl)cc3)CCC2)CC1	-0.0017	0.003	0.0483
CCN(CC)CCCNc1ccnc2cc3ccccc3cc12	-0.9889	0.0381	0.1561
Cl.Clc1cc(Br)ccc1-c1ccc(CNCC2CCNCC2)o1	0.004	0.0133	-0.083
C=CC12CCN(CC1)C(C(O)c1ccnc3ccc(OC)cc13)C2.Cl (stereo not drawn)	-0.0044	0.1593	0.1178
CCOc1cc(Cl)c(C(C)NC(=O)c2cccc(OC)c2)cc1OCC (stereo not drawn)	-0.0293	-0.1186	-0.0623
O=C(CCc1ccccc1)c1ccccc1OCC(O)CN1CCCCC1 (stereo not drawn)	-0.6663	0.0209	-0.1402
COc1ccc2nc(C)cc(Nc3cccc(O)c3)c2c1.Cl	-0.0539	0.0539	0.0008
O=C(NC1CCN(Cc2ccccc2)CC1)c1cc2nc(-c3ccc(Cl)s3)cc(C(F)(F)F)n2n1	0.0199	0.0049	-0.0027

SMILES	Relative Growth (Saccharomyces cerevisiae [1])	Relative Growth (Saccharomyces cerevisiae [2])	Relative Growth (Saccharomyces cerevisiae [3])
O=C(Nc1nc(-c2ccccn2)cs1)c1ccccc1Br	0.0205	-0.0666	0.1503
COc1ccc(Nc2cc(C)nc(NCc3ccccc3)n2)cc1	0.0201	0.0189	0.0325
CCc1ccc(Nc2cc(C)nc3nc(C)nn23)cc1	0.0328	-0.1477	-0.0737
Oc1c2c(nc3cc(-c4ccccc4)nn13)CCCC2	-0.4545	0.0363	-0.0208
Cc1ccc(-c2cc3c(nn2)-c2ccccc2C3=O)cc1	-0.0004	-0.1641	-0.6667
CC1CN(C(=O)c2sc3ccccc3c2Cl)CC(C)O1 (stereo not drawn)	-0.0005	0.0985	-0.1107
Cc1ccc(Cn2c(N3CCC(C(=O)NCc4cccs4)CC3)nc3ccccc32)cc1	-0.105	-0.0044	-0.1621
CCN(CC)CCCNc1nc(-c2ccc(Cl)cc2)nc2ccccc12	-0.029	0.0809	-0.0397
CCN(CC)CCNc1ncnc2c1[nH]c1ccc(Cl)cc12	-0.0494	0.0885	0.0317
CCCc1c(C)nc2ccccc2c1O	-0.0347	-0.1078	-0.1372
COc1cccc(C2(C)Nc3ccccc3-c3nc4ccccc4n32)c1 (stereo not drawn)	0.098	-0.0211	-0.0556
CCOC(=O)c1c[nH]c2c(CC)cccc2c1=O	-0.0665	-0.1466	-0.0989
CCOc1ccc(N2C(N)=NC(N)=NC2(C)C)cc1.Cl	-0.0058	-0.1178	0.0602
Cc1cc(Nc2ccc(C)c(Cl)c2)n2nc(C(F)(F)F)nc2n1	-0.0311	0.1169	-0.6431
COc1ccc2nc(C)cc(Nc3ccccc3O)c2c1	-0.0232	0.0332	-0.0329
O=C(Nc1ccc(CN2CCOCC2)cc1)c1ccc(-c2cc(Cl)ccc2Cl)o1	0.0021	0.0214	-0.173
CCOC(=O)c1c(C)n(-c2ccccc2)c2ccc(OC(=O)c3cc(OC)c(OC)c(OC)c3)cc12	-0.0253	-0.0133	-0.2171
CCC(c1ccccc1)c1nn2c(-c3cccs3)nnc2s1 (stereo not drawn)	-0.0182	0.0181	0.1287
COc1ccccc1CNC(=O)CCn1c(=O)[nH]c2ccccc2c1=O	-0.0038	0.0763	0.058

SMILES	Relative Growth (Saccharomyces cerevisiae [1])	Relative Growth (Saccharomyces cerevisiae [2])	Relative Growth (Saccharomyces cerevisiae [3])
CSc1ccccc1C(=O)Nc1nc(-c2ccccn2)cs1	-0.0643	-0.0928	-0.2282
COc1ccc(C(=O)C2CC2c2ccc(Cl)cc2)cc1 (stereo not drawn)	-0.0484	-0.0877	-0.181
FC(F)(F)c1cccc(CNC2CCN(CCc3ccccc3)CC2)c1	-0.0003	-0.0056	-0.3142
COc1ccc(CCNC(=O)c2cc(S(=O)(=O)N3CC(C)CC(C)C3)ccc2Sc2ccc(F)cc2)cc1OC (stereo not drawn)	-0.1625	-0.1001	-0.0984
CC(C)(C)c1ccc(C(=O)Nc2c3c(nn2-c2cccc(Cl)c2)CSC3)cc1	-0.0819	-0.3492	-0.291
Cc1ccc(F)cc1NC(=O)c1cc(Cl)ccc1Nc1ccccc1	-0.0355	-0.0972	0.1227
O=C(O)C1Cc2c([nH]c3ccccc23)C(c2ccc(Cl)cc2Cl)N1 (stereo not drawn)	-0.035	-0.0148	0.1085
COc1cc2c3cc1Oc1c(OC)c(OC)cc4c1C(Cc1ccc(O)c(c1)Oc1ccc(cc1)CC3N(C)CC2)N(C)CC4.Cl (stereo not drawn)	-0.0961	0.0109	-0.1414
CCOc1c(Cl)cc(CNCC(O)c2ccccc2)cc1OC (stereo not drawn)	-0.0592	0.0136	-0.2647
Cc1ccc(S(=O)(=O)c2c(COC(=O)c3cccc(C)c3)c(-c3ccccc3)nn2C)cc1	0.0124	-0.0588	-0.0042
O=C1CC(O)(C(F)(F)C(F)(F)F)Oc2ccccc21 (stereo not drawn)	-0.0644	-0.042	-0.6809
CN1CCN(c2ccc(Nc3c4ccccc4nc4ccccc34)cc2)CC1	0.031	0.0237	0.1233
C=C(C)CCC(C)N1CCC(N2CCC(C(=O)NCCc3ccccc3)CC2)CC1 (stereo not drawn)	-0.0567	0.0261	-0.0755
O=C(O)C(=O)O.Oc1ccccc1CN1CCN(C(c2ccccc2)c2ccccc2)CC1	-0.1402	0.1461	0.0338
Cc1ccc(-c2nc3ccccc3o2)cc1NCc1cc(Cc2ccccc2)ccc1O	-0.0705	0.0201	-0.1416
CCN(CC)CCNc1ncnc2c1[nH]c1ccc(Br)cc12	-0.0425	0.101	0.0355
CC(C)(C)CC(C)(C)NCC(O)COc1ccc(Cl)cc1Cl (stereo not drawn)	-0.1373	0.0104	-0.1363
CCCCCCc1cc2cc(-c3csc(C=Cc4ccccc4)n3)c(=O)oc2cc1O	-0.0646	-0.058	-0.0651
